# Experimental data reported in US6361998B1, “Efficient culture of stem cells for the production of hemoglobin” (Hemosol Inc., priority 1999, dated 2002).
# B1: EpoR: full length wild-type human erythropoietin receptor (protein)
# chain: APPPNLPDPKFESKAALLAARGPEELLCFTERLEDLVCFWEEAASAGVGPGNYSFSYQLEDEPWKLCRLHQAPTARGAVRFWCSLPTADTSSFVPLELRVTAASGAPRYHRVIHINEVVLLDAPVGLVARLADESGHVVLRWLPPPETPMTSHIRYEVDVSAGNGAGSVQRVEILEGRTECVLSNLRGRTRYTFAVRARMAEPSFGGFWSAWSEPVSLLTPSDLDPLILTLSLILVVILVLLTVLALLSHRRALKQKIWPGIPSPESEFEGLFTTHKGNFQLWLYQNDGCLWWSPCTPFTEDPPASLEVLSERCWGTMQAVEPGTDDEGPLLEPVGSEHAQDTYLVLDKWLLPRNPPSEDLPGPGGSVDIVAMDEGSEASSCSSALASKPSPEGASAASFEYTILDPSSQLLRPWTLCPELPPTPPHLKYLYLVVSDSGISTDYSSGDSQGAQGGLSDGPYSNPYENSLIPAAEPLPPSYVACS
# B2: truncated EpoR: murine EpoR with C-terminal 42 amino acids replaced with Ala-Leu (Yoshimura 1990) (protein, listed as Homo sapiens)
# chain: MDHLGASLWPQVGSLCLLLAGAAWAPPPNLPDPKFESKAALLAARGPEELLCFTERLEDLVCFWEEAASAGVGPGNYSFSYQLEDEPWKLCRLHQAPTARGAVRFWCSLPTADTSSFVPLELRVTAASGAPRYHRVIHINEVVLLDAPVGLVARLADESGHVVLRWLPPPETPMTSHIRYEVDVSAGNGAGSVQRVEILEGRTECVLSNLRGRTRYTFAVRARMAEPSFGGFWSAWSEPVSLLTPSDLDPLILTLSLILVVILVLLTVLALLSHRRALKQKIWPGIPSPESEFEGLFTTHKGNFQLWLYQNDGCLWWSPCTPFTEDPPASLEVLSERCWGTMQAVEPGTDDEGPLLEPVGSEHAQDTYLVLDKWLLPRNPPSEDLPGPGGSVDIVAMDEGSEASSCSSALASKPSPEGASAASFEYTILDPSSQLLRP
# B3: EpoR(t439): human EpoR truncated at Trp439; hypersensitive to Epo (SEQ ID NOS 4 and 5) (protein, listed as Homo sapiens)
# chain: MDHLGASLWPQVGSLCLLLAGAAWAPPPNLPDPKFESKAALLAARGPEELLCFTERLEDLVCFWEEAASAGVGPGNYSFSYQLEDEPWKLCRLHQAPTARGAVRFWCSLPTADTSSFVPLELRVTAASGAPRYHRVIHINEVVLLDAPVGLVARLADESGHVVLRWLPPPETPMTSHIRYEVDVSAGNGAGSVQRVEILEGRTECVLSNLRGRTRYTFAVRARMAEPSFGGFWSAWSEPVSLLTPSDLDPLILTLSLILVVILVLLTVLALLSHRRALKQKIWPGIPSPESEFEGLFTTHKGNFQLWLYQNDGCLWWSPCTPFTEDPPASLEVLSERCWGTMQAVEPGTDDEGPLLEPVGSEHAQDTYLVLDKWLLPRNPPSEDLPGPGGSVDIVAMDEGSEASSCSSALASKPSPEGASAASFEYTILDPSSQLLRP
# B4: EpoR(R129C): murine EpoR with Arg129 replaced by Cys, constitutively active (literature) (protein, UniProt P14753 25-507, looked up, variant R129C)
# Erythropoietin receptor: APSPSLPDPKFESKAALLASRGSEELLCFTQRLEDLVCFWEEAASSGMDFNYSFSYQLEGESRKSCSLHQAPTVRGSVRFWCSLPTADTSSFVPLELQVTEASGSPRYHRIIHINEVVLLDAPAGLLACRAEEGSHVVLRWLPPPGAPMTTHIRYEVDVSAGNRAGGTQRVEVLEGRTECVLSNLRGGTRYTFAVRARMAEPSFSGFWSAWSEPASLLTASDLDPLILTLSLILVLISLLLTVLALLSHRRTLQQKIWPGIPSPESEFEGLFTTHKGNFQLWLLQRDGCLWWSPGSSFPEDPPAHLEVLSEPRWAVTQAGDPGADDEGPLLEPVGSEHAQDTYLVLDKWLLPRTPCSENLSGPGGSVDPVTMDEASETSSCPSDLASKPRPEGTSPSSFEYTILDPSSQLLCPRALPPELPPTPPHLKYLYLVVSDSGISTDYSSGGSQGVHGDSSDGPYSHPYENSLVPDSEPLHPGYVACS
# Experiments:
# [1] = system: CD34^+ enriched cells; assay: Addition of SA and hemin to EPSFM+LDL culture of CD34+ enriched cells, Hb content; type: cell-based, human; conditions: at culture termination; SA 25 uM; hemin (if any) 25 uM at initiation of culture
# Description: CD34^+ enriched cells were isolated and cultured in EPSFM+LDL as described in Example 1. In some samples, SA was added to EPSFM+LDL to a final concentration of 25 uM. In some instances, hemin was added to the SA containing cultures to a final hemin concentration of 25 uM. Hemin was added to some SA containing cultures at the initiation of culture and to others after 15 days of culture. The addition of SA, an inhibitor of heme synthesis, to EPSFM+LDL increased the fold expansion of cells obtained but reduced the percentage of GlyA^+ cells and the Hb content of these cells (Table 10). The low hemoglobin content was ameliorated by the addition of hemin to EPSFM+LDL+SA at the initiation of culture. However, as the percentage of GlyA^+ cells was decreased in this instance, the total amount of Hb per culture is similar to that observed with culture in EPSFM+LDL alone. The addition of hemin after 15 days of culture, instead of at culture initiation, further increased the fold expansion without reducing the percentage of GlyA^+ cells. Unexpectedly, the amount of hemoglobin per cell increased to approximately that obtained with EPSFM+LDL.
# [2] = system: CD34^+ enriched cells; assay: Expansion and differentiation of CD34+ enriched cells with SA added to EPSFM+LDL; type: cell-based, human
# Description: CD34^+ enriched cells were isolated and cultured as described in Example 1. Succinylacetone (SA), a heme synthesis inhibitor, was added to EPSFM+LDL at concentrations of 25 to 250 uM at the initiation of culture. Results are depicted in Table 4 and FIGS. 4 to 6. The addition of 50 uM SA to EPSFM+LDL increased cell expansion 8-fold when compared to controls without SA (FIG. 4).
# [3] = system: CD34^+ enriched cells from human umbilical cord blood LDMNC; assay: Expansion and differentiation of CD34+ enriched cells in serum-free suspension culture; type: cell-based; conditions: hemin added to defined culture medium (25 uM, FIG. 3)
# Description: CD34^+ cells were enriched from human umbilical cord blood LDMNC by lineage depletion of cells expressing CD3, CD14, CD16, CD19, CD24, CD56, CD66b and glycophorin A (GlyA) to enrich lin^− cells. The viability of CD34^+ cells pre- and post-enrichment was determined by trypan-blue dye exclusion and cells were characterized for CD34 and CD45 co-expression by standard flow cytometry methods (see Table 2, FIG. 1).
# CD34^+ cells were cultured at an initial seeding density of 1-2×10^4 cells/ml in EPSFM+LDL with the composition described in Table 1B. […]
# At the end of 30 days in culture cells were fully differentiated erythroid cells with 57% of the cells staining positively with benzidine and 85% of the cells expressing the erythroid-specific membrane glycoprotein glycophorin A (GlyA). […] The amount of hemoglobin per cell was determined to be 5.2 pg using Western blot analysis. […]
# CD34^+ enriched cells were cultured for 7 to 11 days, as described in Example 1. […] Fewer than 2% of the cells expressed CD34, and hematopoietic progenitors were present at a frequency of 21 BFU-E, 33 CFU-E and 25 CFU-GM per 1×10^5 cells as detected in methylcellulose colony forming assay. […] Field strength, capacitance, and pulse width were optimized to achieve an average transfection efficiency of approximately 20% as measured at 24 hours post-electroporation.
# [4] = system: BaF3 cells; assay: Cytokine-dependency growth of BaF3 cells transfected with human EpoR constructs; type: cell-based, murine; conditions: for growth of BaF3 transfectants: no exogenous IL-3
# Description: The functionality of the EpoR(t439; R154C) was tested and compared to the wild-type EpoR (wtEpoR) and EpoR(t439) using the BaF3 cell line. The cDNAs encoding these three different EpoRs were subcloned into the pcDNA3.1 expression vector, which provides high-level constitutive expression of proteins in mammalian cells and also contains the neomycin gene for the selection of stable transfectant with G418. The vector constructs were electroporated into BaF3 cells and stable transfectants were isolated in the presence of 600 ug/ml G418. BaF3 transfectants were maintained in RPMI-1640 with 10% FBS and 5% WEHI conditioned medium (a source of murine IL-3), except during the cytokine-dependency studies when cells were maintained in RPMI-1640 plus 10% FBS, along with the indicated cytokines. Growth of the different EpoR transfectants in the presence of either murine IL-3 or two different doses of Epo was compared to that of the parental (non-transfected) BaF3 cells (FIG. 7). […] All three EpoR constructs encode functional receptors that allow expansion of the BaF3 cells in the presence of Epo without exogenous IL-3.
# [5] = system: BaF3 cells; conditions: cited from earlier work
molecule,measurement,setting,value
"CC(=O)CC(=O)CCC(=O)O [SA, Succinylacetone]",% GlyA positive cells,[1],74%
same,Hb per GlyA^+ cell,[1],0.95 pg/cell
same,Total Hb per culture,[1],0.03 g
same,Total number of GlyA^+ cells,[1],2.9 × 10^10
same,Total number of cells,[1],3.9 × 10^10
same,Total fold expansion (n = 3),[2]; 25 uM SA added to EPSFM + LDL,6.36 × 10^6
same,Total fold expansion (n = 3),[2]; 50 uM SA added to EPSFM + LDL,2.89 × 10^7
same,increase in cell expansion compared to controls without SA,[2]; 50 uM SA in EPSFM+LDL,8 fold
same,suppression of BZ staining and GlyA expression,[2]; 250 uM SA,Maximum suppression
same,Total fold expansion (n = 3),[2]; 250 uM SA added to EPSFM + LDL,6.77 × 10^6
same,percentages of BZ+ and GlyA+ cells after SA removal,"[2]; SA removed after at least 20 days of culture, by the following passage",increased significantly
same,erythroid differentiation (percentages of BZ+ and GlyA+ cells),[2]; increasing amounts of SA (25 to 250 uM),reduced erythroid differentiation
hemin,"effect of hemin addition on Hb content, number of GlyA cells and BZ positive cells",[3],did not substantially increase
B1,growth of BaF3 transfectants,[4]; 0.02 U/ml Epo,did not grow
same,growth of BaF3 transfectants,[4]; 2 U/ml Epo,grew in the presence of 2 U/ml Epo alone
B2,responsiveness to Epo relative to the wild-type EpoR,"[5]; murine EpoR, C-terminal 42 amino acids replaced with Ala-Leu, expressed in BaF3 cells",3-5 times
B3,growth of BaF3 transfectants,[4]; 0.02 U/ml Epo,grew equally well
same,growth of BaF3 transfectants,[4]; 2 U/ml Epo,grew equally well
same,expansion of BaF3 cells,[4]; absence of exogenous cytokines,did not support cell expansion
same,functionality of the EpoR,[4]; conclusion from BaF3 growth,functional and hypersensitive to Epo
B4,cytokine dependence of BaF3 cell growth,[5]; over-expression of murine EpoR(R129C),permits cytokine-independent growth of BaF3 cells
